Consider 12 compounds from US6083964A, “Optical resolution of racemic aminoalkylpyridine anticonvulsants and (+) aminoalkylpyridine enantiomers as highly potent orally effective anticonvulsant drugs and excitatory amino acid antagonists” (K and K Biosciences, Inc., priority 1999, dated 2000).

Read-outs that look alike come from different tables or passages of the source.

A short description of data set [1]: Neurological deficit, positional sense test and gait and stance test, rats, p.o. The arrangement: species or system rat (Sprague-Dawley). As to conditions: rat, in vivo, po. The procedure: Neurotoxicity is determined by the rotorod ataxia test in mice and by the positional sense test and gait and stance test in the rat. The following Table 2 presents the results of these anticonvulsant tests with respect to several (+) and (-) AAP enantiomeric compounds derived from optical resolution of racemic AAPs of the present invention. This Table 2 identifies the specific compounds tested by their chemical name and provides the test model, the route of administration, the animal species used, and the anticonvulsant activity and toxicity in terms of ED50 and TD50 values, (the median effective and toxic dose respectively), when intraperitoneally administered to mice, and when orally administered to rats. […] This species will be the subject of the complete anticonvulsant quantification test evaluation as described above, but after oral (gavage) administration of the candidate compound. […] Neurological deficit in rats is examined by the positional sense test and gait and stance test. […] Inability to do so rapidly indicates a neurologic deficit. In the gait and stance test, a neurologic deficit is indicated by a circular or a zigzag gait, ataxia, abnormal spread of the legs, abnormal body posture, tremor, hyperactivity, lack of exploratory behavior, somnolence, stupor, or catalepsy.

Data set [2] concerns maximal electroshock seizure (MES) in rats. In words: Maximal electroshock seizure (MES) test, rats, p.o. The data set is classed as in vivo, rat (Sprague-Dawley). The conditions noted are these: for ED50: Rattus norvegicus, po, MES test, read-out: ED50; for % protection (lowest and highest) during 4 hour period: 4 rats per point. The source says:
(§1) The (+) AAP enantiomers obtained by optical resolution of racemic AAPs and the resulting highly orally effective anticonvulsant compositions of this invention are useful in the treatment of convulsive disorders. […] A series of (+) AAP enantiomers and (-) AAP enantiomers of this invention has been evaluated for anticonvulsant activity by the intraperitoneal (i.p.) and by the oral (p.o.) route using two standard seizure models in the mouse and in the rat, the maximal electroshock seizure (MES) test and the subcutaneous pentylenetetrazol (Metrazole) seizure threshold (scMet) test. […] The following Table 2 presents the results of these anticonvulsant tests with respect to several (+) and (-) AAP enantiomeric compounds derived from optical resolution of racemic AAPs of the present invention. This Table 2 identifies the specific compounds tested by their chemical name and provides the test model, the route of administration, the animal species used, and the anticonvulsant activity and toxicity in terms of ED50 and TD50 values, (the median effective and toxic dose respectively), when intraperitoneally administered to mice, and when orally administered to rats. The Maximal Electroshock Seizure Test (MES): Maximal electroshock seizures are elicited with a 60 Hz alternating current of 50 mA intensity in mice and about 150 mA intensity in rats (5-7 times that necessary to elicit minimal electroshock seizures), delivered for 0.2 sec via corneal electrodes. A drop of 0.9% saline is instilled in the eye prior to application of the electrodes in order to […]. Abolition of the hind limb tonic extension component of the seizure is defined as protection and results are expressed as number of animals protected/number of animals tested. The Subcutaneous Pentylenetetrazol (Metrazole) Seizure Threshold Test (scMet): A 0.5% solution of 85 mg/kg of pentylenetetrazol is administered subcutaneously in the posterior midline 30 minutes or 4 hours after drug administration to the animal. […] This species will be the subject of the complete anticonvulsant quantification test evaluation as described above, but after oral (gavage) administration of the candidate compound.
(In the maximal electroshock model the usual endpoint is tonic extension of the hind limbs.)

Data set [3] concerns maximal electroshock seizure (MES) in mice. The data set is described as follows: Maximal electroshock seizure (MES) test, mice, i.p. The data set is classed as in vivo, mouse (male Carworth Farms #1). The conditions noted are these: for % protection: 100 mg/kg; for % protection / P.I. (protective index, TD50/ED50): MES; for ED50: MES test.
From the text: as §1, with “rats. In mice, i.p.: All compounds are emulsified in 0.5% methylcellulose. The solvent has been tested for anticonvulsant and toxic effects and found to introduce no significant bias into the testing of anticonvulsant activity. The compounds are administered intraperitoneally in a volume of 0.01 ml/gm to male Carworth Farms #1 mice weighing about 20 gm. All compounds are tested at least at three dose levels (30, 100 and 300 mg/kg) at 30 minutes and 4 hours after their administration.” for “rats.”, “Anticonvulsant Quantification in Mice i.p.: The ED50 values are determined in” for “This species will be”, “MES, scMet and rotorod ataxia test. To determine the ED50 values, five logarithmically spaced doses” for “subject”, “the” for “the complete anticonvulsant quantification”, “compound are administered to animals (male Carworth Farms #1 mice) in groups of eight, to cover 0-100% protection, and the dose required to protect 50%” for “evaluation as described above, but after oral (gavage) administration”, “animals (ED50) together with its 95% confidence limits, is determined graphically.” for “candidate compound.”

The subject of data set [4] is neurotoxicity (rotorod ataxia) in mice. The data set is described as follows: Neurotoxicity, rotorod ataxia test, mice, i.p. As to conditions: mouse, in vivo, ip. On the set-up: species or system mouse (male Carworth Farms #1). The protocol: Neurotoxicity is determined by the rotorod ataxia test in mice and by the positional sense test and gait and stance test in the rat. The following Table 2 presents the results of these anticonvulsant tests with respect to several (+) and (-) AAP enantiomeric compounds derived from optical resolution of racemic AAPs of the present invention. This Table 2 identifies the specific compounds tested by their chemical name and provides the test model, the route of administration, the animal species used, and the anticonvulsant activity and toxicity in terms of ED50 and TD50 values, (the median effective and toxic dose respectively), when intraperitoneally administered to mice, and when orally administered to rats. In mice, i.p.: All compounds are emulsified in 0.5% methylcellulose. The solvent has been tested for anticonvulsant and toxic effects and found to introduce no significant bias into the testing of anticonvulsant activity. The compounds are administered intraperitoneally in a volume of 0.01 ml/gm to male Carworth Farms #1 mice weighing about 20 gm. All compounds are tested at least at three dose levels (30, 100 and 300 mg/kg) at 30 minutes and 4 hours after their administration. Neurotoxicity is evaluated in mice by the rotorod ataxia test. The animal is placed on a wooden rod of 1 and 1/8 diameter rotating at 6 rpm. Normal mice can remain on a rod rotating at this speed indefinitely. […] Anticonvulsant Quantification in Mice i.p.: The ED50 values are determined in the MES, scMet and rotorod ataxia test. To determine the ED50 values, five logarithmically spaced doses of the test compound are administered to animals (male Carworth Farms #1 mice) in groups of eight, to cover 0-100% protection, and the dose required to protect 50% of the animals (ED50) together with its 95% confidence limits, is determined graphically.
(The rotarod test checks motor coordination on a turning rod.)

Where [5] appears, read: rat, p.o. for racemic AAPs, MES.

As for `CC(Nc1ccc(Cl)c(Cl)c1)c1ccncc1` (racemic) [N-(3,4-Dichlorophenyl)-1-(4-pyridyl)ethylamine, reference compound], the TD50 in data set [1] was > 500 mg/kg. In addition, in data set [2] (setting [5]), the “P.I. (protective index, TD50/ED50)” value is recorded as > 16.8.

Take `CCC(Nc1ccc(Cl)c(Cl)c1)c1ccncc1` (racemic) [N-(3,4-Dichlorophenyl)-1-(4-pyridyl)propylamine, reference compound]: in data set [2] (rat, p.o. for racemic AAPs, 30 mg/kg, 5 time points 0.25-4 hours, MES), the “% protection (lowest and highest) during a 4-hour period” value is listed as 0-50%.

A word on the ED50: it is the dose that gives a 50% effect, or the effect in half of the subjects. In the case of `CC(Nc1cccc(Cl)c1)c1ccncc1` (racemic) [N-(3-Chlorophenyl)-1-(4-pyridyl)ethylamine, reference compound], the TD50 in data set [1] is > 500 mg/kg. In data set [2] (p.o. for racemic AAPs), the ED50 was 34 mg/kg. Besides, the “P.I. (protective index, TD50/ED50)” value in data set [2] (setting [5]) is given as > 14.7.

On to `CC(Nc1ccc(Br)cc1)c1ccncc1` (racemic) [N-(4-Bromophenyl)-1-(4-pyridyl)ethylamine, reference compound], for which the TD50 in data set [1] is > 500 mg/kg. In data set [2] (p.o. for racemic AAPs), the ED50 turned out to be 20.9 mg/kg. In addition, the “P.I. (protective index, TD50/ED50)” value in data set [2] (setting [5]) was > 23.9.

In the case of `CC(Nc1ccc(Cl)cc1)c1ccncc1` (racemic) [N-(4-Chlorophenyl)-1-(4-pyridyl)ethylamine, reference compound], the TD50 in data set [1] is > 470 mg/kg. In data set [2] (p.o. for racemic AAPs), the ED50 came out at 22.9 mg/kg. Moreover, the “P.I. (protective index, TD50/ED50)” value in data set [2] (setting [5]) is listed as > 20.5.

Take `CCC(Nc1ccc(Cl)cc1)c1ccncc1` (racemic) [N-(4-Chlorophenyl)-1-(4-pyridyl)propylamine, reference compound]: in data set [1], the TD50 was > 500 mg/kg. In addition, in data set [2] (p.o. for racemic AAPs), the ED50 was found to be 25 mg/kg. The “P.I. (protective index, TD50/ED50)” value in data set [2] (setting [5]) was > 20.

In the case of `CC(Nc1cccc(Cl)c1)c1ccncc1` (single isomer, unassigned; (+)) [Compound 3, (+) N-(3-Chlorophenyl)-1-(4-pyridyl)ethylamine], in data set [3] (listed as (2) (+) Enantiomer), the “% protection” value is reported as 67%. Moreover, the “% protection (lowest and highest) during 4 hour period” value in data set [2] (rat, p.o., 30 mg/kg, 5 time points 0.25-4 hours, MES, listed as (2) (+) Enantiomer, 30 mg/kg) was 25-75%.

`CC(Nc1cccc(Cl)c1)c1ccncc1` (single isomer, unassigned; (-)) [Compound 4, (-) N-(3-Chlorophenyl)-1-(4-pyridyl)ethylamine]: the TD50 in data set [1] was > 62.5 mg/kg. Also, in data set [3] (listed as (2) (-) Enantiomer), the “% protection” value amounted to 33%. In data set [2] (p.o.), the ED50 amounted to 29.6 mg/kg. Also, in data set [2] (rat, p.o., 30 mg/kg, 5 time points 0.25-4 hours, MES, listed as (2) (-) Enantiomer), the “% protection (lowest and highest) during 4 hour period” value is given as 50-100%. Also, the “P.I. (protective index, TD50/ED50)” value in data set [2] (rat, p.o., MES) is > 2.1.

Consider `CC(Nc1ccc(Cl)c(Cl)c1)c1ccncc1` (single isomer, unassigned; (-)) [Compound 6, (-) N-(3,4-Dichlorophenyl)-1-(4-pyridyl)ethylamine], for which, in data set [3] (listed as (3) (-) Enantiomer), the ED50 worked out at 125.4 mg/kg and the “P.I. (protective index, TD50/ED50)” value was found to be 2.2. In data set [2] (rat, p.o., 30 mg/kg, 5 time points 0.25-4 hours, MES, listed as (3) (-) Enantiomer), the “% protection (lowest and highest) during 4 hour period” value is on record as 25-75%. For the same compound, in data set [4], the TD50 is reported as 279.2 mg/kg.

`CCC(Nc1ccc(Cl)cc1)c1ccncc1` (single isomer, unassigned; (-)) [Compound 8, (-) N-(4-Chlorophenyl)-1-(4-pyridyl)propylamine]: in data set [3] (listed as (4) (-) Enantiomer), the ED50 amounted to 118.9 mg/kg and the “P.I. (protective index, TD50/ED50)” value is 2.3. For the same compound, in data set [2] (rat, p.o., 30 mg/kg, 5 time points 0.25-4 hours, MES, listed as (4) (-) Enantiomer), the “% protection (lowest and highest) during 4 hour period” value was 25-100%. Also, the TD50 in data set [4] worked out at 269.4 mg/kg.

Turning to `CCC(Nc1ccc(Cl)c(Cl)c1)c1ccncc1` (single isomer, unassigned; (-)) [Compound 10, (-) N-(3,4-Dichlorophenyl)-1-(4-pyridyl)propylamine], in data set [3] (listed as (5) (-) Enantiomer), the median effective dose (ED50) is given as 117.3 mg/kg and the “P.I. (protective index, TD50/ED50)” value was found to be 2.3. The “% protection (lowest and highest) during 4 hour period” value in data set [2] (rat, p.o., 30 mg/kg, 5 time points 0.25-4 hours, MES, listed as (5) (-) Enantiomer) is reported as 25-100%. This compound gave a TD50 in data set [4] of 275.2 mg/kg.

On to `CC(Nc1ccc(Br)cc1)c1ccncc1` (single isomer, unassigned; (-)) [Compound 12, (-) N-(4-Bromophenyl)-1-(4-pyridyl)ethylamine], for which, in data set [3] (listed as (6) (-) Enantiomer), the ED50 came to 85.5 mg/kg and the “P.I. (protective index, TD50/ED50)” value worked out at 3.4. Further, in data set [2] (rat, p.o., 30 mg/kg, 5 time points 0.25-4 hours, MES), the “% protection (lowest and highest) during 4 hour period” value was 25-75%. Further, the TD50 in data set [4] is 287.6 mg/kg.
